Assay results published in patent publication US20080227796A1, “7-Amino-6-Hetaryl-1,2,4-Triazolo[1,5-A]Pyrimidine Compounds and the Use Thereof for Controlling Pathogenic Fungi” (BASF Aktiengesellschaft, priority 2004, published 2008).

Tested on: Puccinia recondita
Experiment: Protective activity against Puccinia recondita on wheat (brown rust of wheat)
Assay type: in vivo
Conditions: 250 ppm, protective: wheat seedlings sprayed the day before inoculation, visual rating after a further 7 days; untreated plants 90% infected
Procedure: The respective active compound was prepared as a stock solution with 25 mg of active compound which was made up to 10 ml with a mixture of acetone and/or dimethyl sulfoxide (DMSO) and the emulsifier Uniperol® EL (wetting agent having emulsifying and dispersing action based on ethoxylated alkylphenols) in a volume ratio solvent/emulsifier of 99 to 1. The solution was then made up to 100 ml with water. This stock solution was diluted to the active compound concentration stated below using the solvent/emulsifier/water mixture described.
Leaves of potted wheat seedlings of the cultivar “Kanzler” were sprayed to runoff point with an aqueous suspension having the active compound concentration stated below. The next day, the treated plants were inoculated with a spore suspension of brown rust of wheat (Puccinia recondita). The plants were then placed in a chamber with high atmospheric humidity (90 to 95%) at 20 to 22° C. for 24 hours. During this time, the spores germinated and the germ tubes penetrated into the leaf tissue. The next day, the test plants were returned to the greenhouse and cultivated at temperatures between 20 and 22° C. and 65 to 70% relative atmospheric humidity for a further 7 days. The extent of the rust fungal development on the leaves was then determined visually.

SMILES: Cc1cc(-c2c(Cl)nc3ncnn3c2N[C@H](C)C(C)C)ccn1 [Example 59]
- infection: no infection
